Key:
CYP 2D6 = CYP 2D6 (Homo sapiens, UniProt P10635); assay: CYP inhibition 2D6 (MFC substrate); format: in vitro ADME; conditions: 10 μM
Source text: (§1) Table 3 In vitro physicochemical, stability and metabolism data. | column: Value

Plasma stability = format: in vitro ADME; conditions: plasma (rat, Sprague-Dawley)
Source text: as §1

ICR mice [1] = assay: Single-dose IP MTD study; format: in vivo; conditions: for Necropsy: gross findings: 24 h post dosing; for Weigt decrease (%): over 24 h
Description: (§2) Male ICR mice (20–26 g), were obtained from BioLASCO Taiwan. Animals were kept in conventional cages with wood chip bedding. Space allocation for 3–5 animals was 30 x 19 x 13 cm. All animals were healthy at the start of the trial and maintained in a well-controlled temperature (20–24°C) and humidity (30%-70%) environment with 12 h light/dark cycles. Free access to a standard lab diet [MFG (Oriental Yeast Co., Ltd., Japan)] and autoclaved tap water were granted.
(§3) A single PO and IP dose progression test was conducted in which animals were dosed at a minimum of 72- or 24-h intervals, respectively. C16 (vehicle: 10% Solutol HS-15 / 90% PEG 600) was administered by oral gavage at 10 mL/kg to randomly assigned groups of 2 male and 2 female mice, or by IP injection at 5 mL/kg to randomly assigned groups of 5 male mice. Animals received an initial dose of 10 mg/kg. If 50% of the animals survived for 72 h (PO) or 30 min (IP), the dose for the next cohort was increased. If one or more animals died, the dose for the next cohort was decreased. The next dose level was determined by the decision scheme in Fig 2.
(§4) Body weights were recorded before dosing and at the 72- (PO) or 24-h (IP) time point. Gross necropsy was performed in all animals without tissue collection.
C16 was administered IP at an initial dose of 10 mg/kg to a group of 5 ICR derived male mice weighing 22±2 g. The animals were then observed for presence of acute toxic symptoms and autonomic effects during the first 30 min and after 1 h, 2 h, 6 h and 24 h (Table S-Table U). The next dose level was determined based on whether more than 50% animals died within 30 min after dosing. Gross necropsy was performed in all animals without tissue collection .
Table S. Body weights, evolution over 24 h, IP MTD study.
Compound Dose Animal Body weight (g)
Table T. Food consumption over 24 h, IP MTD study.
Compound Dose Animal Food consumption (g)

[2] = Metabolite profiling in whole blood; format: in vitro ADME; conditions: rat whole blood
Description: C. Stability and metabolism
For details on ADME experiments not included underneath , please consult ref. [1].
C.A. Whole blood stability
Column: Kinetex XB-C18 column, 2.6 µm (150 x2.1 mm)
Mobile phase A: H2O + 0.1% v/v Formic Acid
Mobile phase B: MeCN + 0.1% v/v Formic Acid
Autosampler syringe volume: 100 µL
Weak wash: MeOH:H2O 1:9 v/v
Strong wash: MeOH:H2O 95:5 v/v
Table K. Gradient program.
Mass spectrometric conditions
Model: AB Sciex API5500 QTrap
Mode: Multiple ion monitoring (MIM)
Table L. MIM (parent to parent transitions).
The areas and percentages for the parent and metabolites have been calculated using MIM data where parent to parent transitions have been used, and assume that each metabolite has the same point of ionisation and the sensitivity of the metabolite has not been affected by the biotransformation.

ICR mice [3] = assay: Single-dose PO MTD study; format: in vivo; conditions: for Necropsy: gross findings: 72 h post dosing; for Autonomic / Behavioral / Neurologic: first 60 min; for Weigt increase (%): over 72 h, average±SD
Description: as §2, §3, §4
dose was increased or decreased in each subsequent test round until the MTD was discovered. Gross necropsy was
performed in all animals without tissue collection.

CYP 2D6, sequence (P10635 whole entry): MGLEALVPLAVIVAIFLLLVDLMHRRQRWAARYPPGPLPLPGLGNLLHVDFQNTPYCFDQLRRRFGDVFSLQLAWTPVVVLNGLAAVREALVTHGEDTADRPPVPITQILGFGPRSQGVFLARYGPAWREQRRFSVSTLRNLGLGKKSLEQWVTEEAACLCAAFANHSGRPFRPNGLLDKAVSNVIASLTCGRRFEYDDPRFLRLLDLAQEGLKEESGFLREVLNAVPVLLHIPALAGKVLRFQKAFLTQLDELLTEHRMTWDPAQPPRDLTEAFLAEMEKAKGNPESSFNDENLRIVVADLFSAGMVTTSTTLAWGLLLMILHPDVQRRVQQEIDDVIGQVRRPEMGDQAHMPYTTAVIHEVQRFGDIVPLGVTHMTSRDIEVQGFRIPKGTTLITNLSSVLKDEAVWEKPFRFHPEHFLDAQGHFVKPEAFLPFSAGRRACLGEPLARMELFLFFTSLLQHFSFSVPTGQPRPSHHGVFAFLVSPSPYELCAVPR

In the case of `COc1cc(C(=O)/C=C/c2ccc(F)cc2)cc(OC)c1OC` [C16, 4-fluoro-3’,4’,5’-trimethoxychalcone], the “CYP inhibition 2D6 (MFC substrate)” value (CYP 2D6) is reported as -19 % inhibition of control, the half-life at 1 μM (Plasma stability) is reported as > 2 h and the Deaths (ICR mice [1]; IP 10 mg/kg) is reported as 0/5. For the same compound, the “Necropsy: gross findings” value (ICR mice [1]; IP 10 mg/kg) was “none”, the “Autonomic: Hunch back” value (ICR mice [1]; IP 10 mg/kg, first 30 min) was 3/5 and the “Autonomic: Low body temperature” value (ICR mice [1]; IP 10 mg/kg, first 30 min) was 0/5. The “Behavioral: Irritability: vocalization” value (ICR mice [1]; IP 10 mg/kg, first 30 min) was 0/5, the “Behavioral: Pinna” value (ICR mice [1]; IP 10 mg/kg, first 30 min) was 0/5 and the “Neurologic: Low limb post” value (ICR mice [1]; IP 10 mg/kg, first 30 min) was 0/5. The “Neurologic: Tremor: twitches” value (ICR mice [1]; IP 10 mg/kg, first 30 min) was 2/5, the “Weigt decrease (%)” value (ICR mice [1]; IP 10 mg/kg) was 2.4% and the Deaths (ICR mice [1]; IP 30 mg/kg) was 0/5. The “Necropsy: gross findings” value (ICR mice [1]; IP 30 mg/kg) was “none”, the “Autonomic: Hunch back” value (ICR mice [1]; IP 30 mg/kg, first 30 min) was 5/5 and the “Autonomic: Low body temperature” value (ICR mice [1]; IP 30 mg/kg, first 30 min) was 0/5. The “Neurologic: Tremor: twitches” value (ICR mice [1]; IP 30 mg/kg, first 30 min) was 2/5, the “Weigt decrease (%)” value (ICR mice [1]; IP 30 mg/kg) was 4.8% and the Deaths (ICR mice [1]; IP 50 mg/kg) was 0/5. The “Necropsy: gross findings” value (ICR mice [1]; IP 50 mg/kg) was “none”, the “Autonomic: Hunch back” value (ICR mice [1]; IP 50 mg/kg, first 30 min) was 5/5 and the “Neurologic: Tremor: twitches” value (ICR mice [1]; IP 50 mg/kg, first 30 min) was 3/5. The “Weigt decrease (%)” value (ICR mice [1]; IP 50 mg/kg) was 8.7%, the “tolerated dose, single-dose IP administration” value (ICR mice [1]; male, ICR, mouse, in vivo, ip, 24 h) was “up to 50 mg/kg” and the “Area in sample (%)” value ([2]; 0 min control) was 62.4%. The “Area in sample (%)” value ([2]; 15 min sample) was 52.2%, the tolerated dose (ICR mice [3]; ICR mice, PO oral gavage, single dose) was 10 to 300 mg/kg and the Deaths (ICR mice [3]; PO 10 mg/kg, F) was 0/2. The “Necropsy: gross findings” value (ICR mice [3]; PO 10 mg/kg, F) was “none”, the Autonomic (ICR mice [3]; PO 10 mg/kg, F) was “none” and the Behavioral (ICR mice [3]; PO 10 mg/kg, F) was “none”. The Neurologic (ICR mice [3]; PO 10 mg/kg, F) was “none”, the “Weigt increase (%)” value (ICR mice [3]; PO 10 mg/kg, F) was 2±3% and the Deaths (ICR mice [3]; PO 10 mg/kg, M) was 0/2. For the same compound, the “Necropsy: gross findings” value (ICR mice [3]; PO 10 mg/kg, M) was “none”, the Autonomic (ICR mice [3]; PO 10 mg/kg, M) was “none” and the Behavioral (ICR mice [3]; PO 10 mg/kg, M) was “none”. The Neurologic (ICR mice [3]; PO 10 mg/kg, M) was “none”, the “Weigt increase (%)” value (ICR mice [3]; PO 10 mg/kg, M) was 25±3% and the Deaths (ICR mice [3]; PO 30 mg/kg, F) was 0/2. For the same compound, the “Necropsy: gross findings” value (ICR mice [3]; PO 30 mg/kg, F) was “none”, the Autonomic (ICR mice [3]; PO 30 mg/kg, F) was “none” and the Behavioral (ICR mice [3]; PO 30 mg/kg, F) was “none”. For the same compound, the Neurologic (ICR mice [3]; PO 30 mg/kg, F) was “none”, the “Weigt increase (%)” value (ICR mice [3]; PO 30 mg/kg, F) was 6±3% and the Deaths (ICR mice [3]; PO 30 mg/kg, M) was 0/2. The “Necropsy: gross findings” value (ICR mice [3]; PO 30 mg/kg, M) was “none”, the Autonomic (ICR mice [3]; PO 30 mg/kg, M) was “none” and the Behavioral (ICR mice [3]; PO 30 mg/kg, M) was “none”. For the same compound, the Neurologic (ICR mice [3]; PO 30 mg/kg, M) was “none”, the “Weigt increase (%)” value (ICR mice [3]; PO 30 mg/kg, M) was 18±3% and the Deaths (ICR mice [3]; PO 100 mg/kg, F) was 0/2. For the same compound, the “Necropsy: gross findings” value (ICR mice [3]; PO 100 mg/kg, F) was “none”, the Autonomic (ICR mice [3]; PO 100 mg/kg, F) was “none” and the Behavioral (ICR mice [3]; PO 100 mg/kg, F) was “Yes: B,C”. The Neurologic (ICR mice [3]; PO 100 mg/kg, F) was “none”, the “Weigt increase (%)” value (ICR mice [3]; PO 100 mg/kg, F) was 8±1% and the Deaths (ICR mice [3]; PO 100 mg/kg, M) was 0/2. For the same compound, the “Necropsy: gross findings” value (ICR mice [3]; PO 100 mg/kg, M) was “none”, the Autonomic (ICR mice [3]; PO 100 mg/kg, M) was “none” and the Behavioral (ICR mice [3]; PO 100 mg/kg, M) was “Yes: A,C”. The Neurologic (ICR mice [3]; PO 100 mg/kg, M) was “none”, the “Weigt increase (%)” value (ICR mice [3]; PO 100 mg/kg, M) was 25±1% and the Deaths (ICR mice [3]; PO 300 mg/kg, F) was 0/2. For the same compound, the “Necropsy: gross findings” value (ICR mice [3]; PO 300 mg/kg, F) was “none”, the Autonomic (ICR mice [3]; PO 300 mg/kg, F) was “none” and the Behavioral (ICR mice [3]; PO 300 mg/kg, F) was “Yes: A”. The Neurologic (ICR mice [3]; PO 300 mg/kg, F) was “none”, the “Weigt increase (%)” value (ICR mice [3]; PO 300 mg/kg, F) was 7±3% and the Deaths (ICR mice [3]; PO 300 mg/kg, M) was 0/2. The “Necropsy: gross findings” value (ICR mice [3]; PO 300 mg/kg, M) was “none”, the Autonomic (ICR mice [3]; PO 300 mg/kg, M) was “none” and the Behavioral (ICR mice [3]; PO 300 mg/kg, M) was “Yes: A”. For the same compound, the Neurologic (ICR mice [3]; PO 300 mg/kg, M) was “none”, the “Weigt increase (%)” value (ICR mice [3]; PO 300 mg/kg, M) was 17±0% and the “maximum tolerated single dose” value (ICR mice [3]; mouse, oral gavage) was > 300 mg/kg.

Source: PMC5823406, “Vehicle development, pharmacokinetics and toxicity of the anti-invasive agent 4-fluoro-3’,4’,5’-trimethoxychalcone in rodents” (PLoS ONE, 2018)
